Patent US8729061B2, “Pyrrolidine derivatives” (Hoffmann-La Roche Inc., priority 2011, dated 2014)

Experiments:
Format in all cases: biochemical
[1] = biological target: human Cat K (Homo sapiens (Human), UniProt P43235); test: Cathepsin enzyme inhibition assay (fluorogenic peptide substrate), Cat K; details: enzyme 1 nM, substrate Z-Leu-Arg-AMC 20 μM, pH 6.5
Procedure: (§1) Enzyme activity is measured by observing the increase in fluorescence intensity caused by cleavage of a peptide substrate containing a fluorophore whose emission is quenched in the intact peptide.
(§2) Assay buffer: 100 mM potassium phosphate pH 6.5, EDTA-Na 5 mM, Triton X-100 0.001%, DTT 5 mM.
(§3) Enzymes (all at 1 nM): human and mouse Cathepsin S, Cat K, Cat B, Cat L. Substrate (20 μM): Z-Val-Val-Arg-AMC, except for Cat K which uses Z-Leu-Arg-AMC (both from Bachem).
(§4) Excitation 360 nm, Emission 465 nm.
(§5) Enzyme is added to the substance dilutions in 96-well microtitre plates and the reaction is started with substrate. […] IC50 are calculated by standard methods. Inhibition of human Cat S, mouse Cat S, human Cat K, mouse Cat K, human Cat B, mouse Cat B, human Cat L and mouse Cat L have been measured separately.

[2] = biological target: human Cat B (Homo sapiens (Human), UniProt P07858); test: Cathepsin enzyme inhibition assay (fluorogenic peptide substrate), Cat B; details: enzyme 1 nM, substrate Z-Val-Val-Arg-AMC 20 μM, pH 6.5
Procedure: as §1, §2, §3, §4, §5

[3] = biological target: human Cathepsin S (Homo sapiens (Human), UniProt P25774); test: Cathepsin enzyme inhibition assay (fluorogenic peptide substrate), Cat S; details: enzyme 1 nM, substrate Z-Val-Val-Arg-AMC 20 μM, pH 6.5
Chain of human Cathepsin S (P25774 115-331): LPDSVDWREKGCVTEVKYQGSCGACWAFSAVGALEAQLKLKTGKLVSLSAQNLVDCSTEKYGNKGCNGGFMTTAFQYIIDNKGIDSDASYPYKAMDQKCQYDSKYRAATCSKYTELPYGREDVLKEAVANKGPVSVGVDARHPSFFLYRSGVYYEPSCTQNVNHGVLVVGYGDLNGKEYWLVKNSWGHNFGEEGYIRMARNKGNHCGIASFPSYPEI
Procedure: as §1, §2, §3, §4, §5

[4] = biological target: human Cat L (Homo sapiens (Human), UniProt P07711); test: Cathepsin enzyme inhibition assay (fluorogenic peptide substrate), Cat L; details: enzyme 1 nM, substrate Z-Val-Val-Arg-AMC 20 μM, pH 6.5
Chain of human Cat L (P07711 114-333): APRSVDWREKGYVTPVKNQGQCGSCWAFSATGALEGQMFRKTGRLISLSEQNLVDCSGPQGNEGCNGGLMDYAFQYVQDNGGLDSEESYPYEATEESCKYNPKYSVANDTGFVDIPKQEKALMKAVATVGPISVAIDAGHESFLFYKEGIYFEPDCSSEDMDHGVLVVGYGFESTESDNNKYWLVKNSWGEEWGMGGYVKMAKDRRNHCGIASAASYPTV
Procedure: as §1, §2, §3, §4, §5

Chain of human Cat K (P43235 115-329): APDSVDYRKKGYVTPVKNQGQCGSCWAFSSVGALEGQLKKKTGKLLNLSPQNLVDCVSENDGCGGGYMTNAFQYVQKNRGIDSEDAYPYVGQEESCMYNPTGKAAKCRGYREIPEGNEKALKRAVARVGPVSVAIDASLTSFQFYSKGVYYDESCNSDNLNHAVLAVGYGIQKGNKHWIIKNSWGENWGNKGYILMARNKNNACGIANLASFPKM

Question: `O=C(NC1CC1)C(=O)[C@H](CC1CCCCC1)NC(=O)[C@@H]1C[C@@H](S(=O)(=O)c2ccccc2Cl)CN1C(=O)C1(c2ccc(Cl)cc2)CC1` [Example 30, (2S,4R)-1-(1-(4-chlorophenyl)cyclopropanecarbonyl)-4-(2-chlorophenylsulfonyl)-N—((S)-1-cyclohexyl-4-(cyclopropylamino)-3,4-dioxobutan-2-yl)pyrrolidine-2-carboxamide] was tested. Which IC50 [1] did it give?
Answer: The IC50 was 0.137 µM.

Question: And the IC50 [2]?
Answer: Its IC50 is 0.21 µM.

Question: And the IC50 [3]?
Answer: The IC50 was 0.00142 µM.

Question: What about the IC50 [4] of the same compound?
Answer: Its IC50 is 0.0234 µM.

Question: What does the source list for `CCCCNC(=O)C(=O)[C@H](CCC)NC(=O)[C@@H]1C[C@@H](S(=O)(=O)c2ccccc2Cl)CN1C(=O)C1(c2ccc(Cl)cc2)CC1` [Example 32, (2S,4R)—N—((S)-1-(butylamino)-1,2-dioxohexan-3-yl)-1-(1-(4-chlorophenyl)cyclopropanecarbonyl)-4-(2-chlorophenylsulfonyl)pyrrolidine-2-carboxamide]?
Answer: IC50 [1]: 0.024 µM; IC50 [2]: 0.0294 µM; IC50 [3]: 0.000734 µM; IC50 [4]: 0.0077 µM

Question: What does the source list for `CC[C@H](NC(=O)[C@@H]1C[C@@H](S(=O)(=O)c2ccccc2Cl)CN1C(=O)C1(c2ccc(Cl)cc2)CC1)C(=O)C(=O)NCc1ccccc1` [Example 33, (2S,4R)—N—((S)-1-(benzylamino)-1,2-dioxopentan-3-yl)-1-(1-(4-chlorophenyl)cyclopropanecarbonyl)-4-(2-chlorophenylsulfonyl)pyrrolidine-2-carboxamide]?
Answer: IC50 [1]: 0.0529 µM; IC50 [2]: 0.077 µM; IC50 [3]: 0.00111 µM; IC50 [4]: 0.0136 µM

Question: Which results are given for `C[C@H](NC(=O)[C@@H]1C[C@@H](S(=O)(=O)c2ccccc2Cl)CN1C(=O)C1(c2ccc(Cl)cc2)CC1)C(=O)C(=O)NC1CC1` [Example 34, (2S,4R)-1-(1-(4-chlorophenyl)cyclopropanecarbonyl)-4-(2-chlorophenylsulfonyl)-N—((S)-4-(cyclopropylamino)-3,4-dioxobutan-2-yl)pyrrolidine-2-carboxamide]?
Answer: IC50 [1]: 0.444 µM; IC50 [2]: 0.399 µM; IC50 [3]: 0.000787 µM; IC50 [4]: 0.028 µM

Question: What does the source list for `CCC[C@H](NC(=O)[C@@H]1C[C@@H](S(=O)(=O)c2ccccc2Cl)CN1C(=O)C1(c2ccc(Cl)cc2)CC1)C(=O)C(=O)NCc1ccccc1` [Example 35, (2S,4R)—N—((S)-1-(benzylamino)-1,2-dioxohexan-3-yl)-1-(1-(4-chlorophenyl)cyclopropanecarbonyl)-4-(2-chlorophenylsulfonyl)pyrrolidine-2-carboxamide]?
Answer: IC50 [1]: 0.0215 µM; IC50 [2]: 0.031 µM; IC50 [3]: 0.00121 µM; IC50 [4]: 0.0098 µM

Question: How did the IC50 [1] turn out when `CCCC(C)NC(=O)C(=O)[C@H](CC)NC(=O)[C@@H]1C[C@@H](S(=O)(=O)c2ccccc2Cl)CN1C(=O)C1(c2ccc(Cl)cc2)CC1` (stereo partly drawn) [Example 36, (2S,4R)-1-(1-(4-chlorophenyl)cyclopropanecarbonyl)-4-(2-chlorophenylsulfonyl)-N-((3S)-1,2-dioxo-1-(pentan-2-ylamino)pentan-3-yl)pyrrolidine-2-carboxamide] was run?
Answer: The IC50 was 0.155 µM.

Question: What about the IC50 [2] of the same compound?
Answer: The IC50 was 0.35 µM.

Question: And the IC50 [3]?
Answer: Its IC50 is 0.000776 µM.

Question: And the IC50 [4]?
Answer: The IC50 was 0.0165 µM.

Question: How did the IC50 [1] turn out when `CCCC(C)NC(=O)C(=O)[C@H](CCC)NC(=O)[C@@H]1C[C@@H](S(=O)(=O)c2ccccc2Cl)CN1C(=O)C1(c2ccc(Cl)cc2)CC1` (stereo partly drawn) [Example 37, (2S,4R)-1-(1-(4-chlorophenyl)cyclopropanecarbonyl)-4-(2-chlorophenylsulfonyl)-N-((3S)-1,2-dioxo-1-(pentan-2-ylamino)hexan-3-yl)pyrrolidine-2-carboxamide] was run?
Answer: Its IC50 is 0.107 µM.

Question: And the IC50 [2]?
Answer: The IC50 was 0.246 µM.

Question: And the IC50 [3]?
Answer: Its IC50 is 0.00102 µM.

Question: And the IC50 [4]?
Answer: The IC50 was 0.0151 µM.

Question: How did the IC50 [1] turn out when `CC[C@H](NC(=O)[C@@H]1C[C@@H](S(=O)(=O)c2ccc(Cl)cc2Cl)CN1C(=O)C1(c2ccc(Cl)cc2)CC1)C(=O)C(=O)NC1CC1` [Example 38, (2S,4R)-1-(1-(4-chlorophenyl)cyclopropanecarbonyl)-N—((S)-1-(cyclopropylamino)-1,2-dioxopentan-3-yl)-4-(2,4-dichlorophenylsulfonyl)pyrrolidine-2-carboxamide] was run?
Answer: The IC50 was 0.0533 µM.

Question: And the IC50 [2]?
Answer: The IC50 was 0.154 µM.

Question: What about the IC50 [3] of the same compound?
Answer: Its IC50 is 0.00034 µM.

Question: What about the IC50 [4] of the same compound?
Answer: Its IC50 is 0.0106 µM.

Question: For `CC[C@H](NC(=O)[C@@H]1C[C@@H](S(=O)(=O)c2ccc(F)cc2Cl)CN1C(=O)C1(c2ccc(Cl)cc2)CC1)C(=O)C(=O)NC1CC1` [Example 39, (2S,4R)-4-(2-chloro-4-fluorophenylsulfonyl)-1-(1-(4-chlorophenyl)cyclopropanecarbonyl)-N—((S)-1-(cyclopropylamino)-1,2-dioxopentan-3-yl)pyrrolidine-2-carboxamide], which IC50 [1] is on record?
Answer: Its IC50 is 0.0636 µM.

Question: What about the IC50 [2] of the same compound?
Answer: The IC50 was 0.14 µM.

Question: And the IC50 [3]?
Answer: Its IC50 is 0.000558 µM.

Question: And the IC50 [4]?
Answer: Its IC50 is 0.0114 µM.

Question: `CCC[C@H](NC(=O)[C@@H]1C[C@@H](S(=O)(=O)c2ccccc2Cl)CN1C(=O)C1(c2ccc(Cl)cc2)CC1)C(=O)C(=O)NCC(F)(F)F` [Example 40, (2S,4R)-1-(1-(4-chlorophenyl)cyclopropanecarbonyl)-4-(2-chlorophenylsulfonyl)-N—((S)-1,2-dioxo-1-(2,2,2-trifluoroethylamino)hexan-3-yl)pyrrolidine-2-carboxamide] was tested. Which IC50 [1] did it give?
Answer: The IC50 was 0.406 µM.

Question: And the IC50 [2]?
Answer: Its IC50 is 0.366 µM.

Question: And the IC50 [3]?
Answer: The IC50 was 0.00106 µM.

Question: What about the IC50 [4] of the same compound?
Answer: The IC50 was 0.0299 µM.

Question: What does the source list for `CCC[C@H](NC(=O)[C@@H]1C[C@@H](S(=O)(=O)c2ccccc2Cl)CN1C(=O)C1(c2ccc(Cl)cc2)CC1)C(=O)C(=O)NC(C)C` [Example 41, (2S,4R)-1-(1-(4-chlorophenyl)cyclopropanecarbonyl)-4-(2-chlorophenylsulfonyl)-N—((S)-1-(isopropylamino)-1,2-dioxohexan-3-yl)pyrrolidine-2-carboxamide]?
Answer: IC50 [1]: 0.152 µM; IC50 [2]: 0.187 µM; IC50 [3]: 0.000568 µM; IC50 [4]: 0.0117 µM

Question: Which IC50 [1] does the source give for `CCC[C@H](NC(=O)[C@@H]1C[C@@H](S(=O)(=O)c2ccccc2Cl)CN1C(=O)C1(c2ccc(Cl)cc2)CC1)C(=O)C(=O)NCC` [Example 44, (2S,4R)-1-(1-(4-chlorophenyl)cyclopropanecarbonyl)-4-(2-chlorophenylsulfonyl)-N—((S)-1-(ethylamino)-1,2-dioxohexan-3-yl)pyrrolidine-2-carboxamide] here?
Answer: Its IC50 is 0.0918 µM.

Question: What about the IC50 [2] of the same compound?
Answer: Its IC50 is 0.108 µM.

Question: And the IC50 [3]?
Answer: Its IC50 is 0.000779 µM.

Question: What about the IC50 [4] of the same compound?
Answer: Its IC50 is 0.0136 µM.

Question: Which results are given for `CC[C@H](NC(=O)[C@@H]1C[C@@H](S(=O)(=O)c2ccc(O[C@@H](C)C(F)(F)F)cc2Cl)CN1C(=O)C1(c2ccc(Cl)cc2)CC1)C(=O)C(=O)NC1CC1` [Example 45, (2S,4R)-4-(2-chloro-4-((S)-1,1,1-trifluoropropan-2-yloxy)phenylsulfonyl)-1-(1-(4-chlorophenyl)cyclopropanecarbonyl)-N—((S)-1-(cyclopropylamino)-1,2-dioxopentan-3-yl)pyrrolidine-2-carboxamide]?
Answer: IC50 [1]: 0.212 µM; IC50 [2]: 0.335 µM; IC50 [3]: 0.00543 µM; IC50 [4]: 0.0749 µM

Question: With `CCC[C@H](NC(=O)[C@@H]1C[C@@H](S(=O)(=O)c2ccc(O[C@@H](C)C(F)(F)F)cc2Cl)CN1C(=O)C1(c2ccc(Cl)cc2)CC1)C(=O)C(=O)NC1CC1` [Example 46, (2S,4R)-4-(2-chloro-4-((S)-1,1,1-trifluoropropan-2-yloxy)phenylsulfonyl)-1-(1-(4-chlorophenyl)cyclopropanecarbonyl)-N—((S)-1-(cyclopropylamino)-1,2-dioxohexan-3-yl)pyrrolidine-2-carboxamide] as the compound, how does the IC50 [1] read?
Answer: Its IC50 is 0.251 µM.

Question: What about the IC50 [2] of the same compound?
Answer: The IC50 was 0.224 µM.

Question: And the IC50 [3]?
Answer: The IC50 was 0.00598 µM.

Question: And the IC50 [4]?
Answer: Its IC50 is 0.0671 µM.

Question: Which IC50 [1] does the source give for `CCC[C@H](NC(=O)[C@@H]1C[C@@H](S(=O)(=O)c2ccccc2Cl)CN1C(=O)C1(c2ccc(Cl)cc2)CC1)C(=O)C(=O)N(C)C1CC1` [Example 47, (2S,4R)-1-(1-(4-chlorophenyl)cyclopropanecarbonyl)-4-(2-chlorophenylsulfonyl)-N—((S)-1-(cyclopropyl(methyl)amino)-1,2-dioxohexan-3-yl)pyrrolidine-2-carboxamide] here?
Answer: The IC50 was 0.998 µM.

Question: And the IC50 [2]?
Answer: Its IC50 is 1.54 µM.

Question: And the IC50 [3]?
Answer: Its IC50 is 0.0223 µM.

Question: What about the IC50 [4] of the same compound?
Answer: Its IC50 is 0.283 µM.

Question: With `CCC[C@H](NC(=O)[C@@H]1C[C@@H](S(=O)(=O)c2ccc(F)cc2Cl)CN1C(=O)C1(c2ccc(Cl)cc2)CC1)C(=O)C(=O)NC1CC1` [Example 48, (2S,4R)-4-(2-chloro-4-fluorophenylsulfonyl)-1-(1-(4-chlorophenyl)cyclopropanecarbonyl)-N—((S)-1-(cyclopropylamino)-1,2-dioxohexan-3-yl)pyrrolidine-2-carboxamide] as the compound, how does the IC50 [1] read?
Answer: Its IC50 is 0.035 µM.

Question: And the IC50 [2]?
Answer: Its IC50 is 0.0832 µM.

Question: What about the IC50 [3] of the same compound?
Answer: The IC50 was 0.000527 µM.

Question: What about the IC50 [4] of the same compound?
Answer: Its IC50 is 0.0094 µM.

Question: `CC[C@H](NC(=O)[C@@H]1C[C@@H](S(=O)(=O)c2ccccc2Cl)CN1C(=O)C1(c2ccc(Cl)cc2)CC1)C(=O)C(=O)NCCc1ccccc1` [Example 49, (2S,4R)-1-(1-(4-chlorophenyl)cyclopropanecarbonyl)-4-(2-chlorophenylsulfonyl)-N—((S)-1,2-dioxo-1-(phenethylamino)pentan-3-yl)pyrrolidine-2-carboxamide] was tested. Which IC50 [1] did it give?
Answer: Its IC50 is 0.0344 µM.

Question: And the IC50 [2]?
Answer: Its IC50 is 0.0302 µM.

Question: And the IC50 [3]?
Answer: Its IC50 is 0.000901 µM.

Question: And the IC50 [4]?
Answer: Its IC50 is 0.002 µM.

Question: Which results are given for `CC[C@H](NC(=O)[C@@H]1C[C@@H](S(=O)(=O)c2ccccc2Cl)CN1C(=O)C1(c2ccc(Cl)cc2)CC1)C(=O)C(=O)NCCc1cccc2ccccc12` [Example 50, (2S,4R)-1-(1-(4-chlorophenyl)cyclopropanecarbonyl)-4-(2-chlorophenylsulfonyl)-N—((S)-1-(2-(naphthalen-1-yl)ethylamino)-1,2-dioxopentan-3-yl)pyrrolidine-2-carboxamide]?
Answer: IC50 [1]: 0.119 µM; IC50 [2]: 0.0688 µM; IC50 [3]: 0.00276 µM; IC50 [4]: 0.0086 µM
